{"source": "paper PMC4774911", "about": "“Biochemical Screening of Five Protein Kinases from Plasmodium falciparum against 14,000 Cell-Active Compounds” (PLoS ONE, 2016)", "assay_in_all_cases": "biochemical", "key": {"MASTL": {"biological_target": "T1, MASTL (Homo sapiens, UniProt Q96GX5)", "T1 sequence (Q96GX5 1-879)": "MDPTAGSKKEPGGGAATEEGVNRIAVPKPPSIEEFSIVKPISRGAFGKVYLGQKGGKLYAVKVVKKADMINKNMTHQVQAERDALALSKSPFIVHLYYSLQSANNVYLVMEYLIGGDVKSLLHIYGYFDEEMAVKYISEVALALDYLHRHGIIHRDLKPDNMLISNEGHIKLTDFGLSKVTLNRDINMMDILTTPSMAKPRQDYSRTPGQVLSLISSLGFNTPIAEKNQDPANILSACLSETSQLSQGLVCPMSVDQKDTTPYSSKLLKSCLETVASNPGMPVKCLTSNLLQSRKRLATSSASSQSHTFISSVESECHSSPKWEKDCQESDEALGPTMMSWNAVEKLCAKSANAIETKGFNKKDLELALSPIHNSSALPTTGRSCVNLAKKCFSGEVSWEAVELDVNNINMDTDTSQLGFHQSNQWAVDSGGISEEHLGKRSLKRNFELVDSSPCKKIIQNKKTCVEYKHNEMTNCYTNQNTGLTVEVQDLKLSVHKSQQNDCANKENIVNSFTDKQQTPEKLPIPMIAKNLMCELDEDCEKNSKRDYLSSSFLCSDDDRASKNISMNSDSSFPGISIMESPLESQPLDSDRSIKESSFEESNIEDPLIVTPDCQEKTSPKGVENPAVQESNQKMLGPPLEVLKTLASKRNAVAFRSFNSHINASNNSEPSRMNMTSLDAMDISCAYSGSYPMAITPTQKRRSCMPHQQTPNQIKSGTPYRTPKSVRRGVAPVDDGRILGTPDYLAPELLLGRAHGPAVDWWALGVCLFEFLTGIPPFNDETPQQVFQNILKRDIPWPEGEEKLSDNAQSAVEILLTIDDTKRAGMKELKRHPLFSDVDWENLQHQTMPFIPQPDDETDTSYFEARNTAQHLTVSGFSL"}, "PCTK2": {"biological_target": "PCTK2 (Homo sapiens, UniProt Q00537)", "sequence (Q00537 whole entry)": "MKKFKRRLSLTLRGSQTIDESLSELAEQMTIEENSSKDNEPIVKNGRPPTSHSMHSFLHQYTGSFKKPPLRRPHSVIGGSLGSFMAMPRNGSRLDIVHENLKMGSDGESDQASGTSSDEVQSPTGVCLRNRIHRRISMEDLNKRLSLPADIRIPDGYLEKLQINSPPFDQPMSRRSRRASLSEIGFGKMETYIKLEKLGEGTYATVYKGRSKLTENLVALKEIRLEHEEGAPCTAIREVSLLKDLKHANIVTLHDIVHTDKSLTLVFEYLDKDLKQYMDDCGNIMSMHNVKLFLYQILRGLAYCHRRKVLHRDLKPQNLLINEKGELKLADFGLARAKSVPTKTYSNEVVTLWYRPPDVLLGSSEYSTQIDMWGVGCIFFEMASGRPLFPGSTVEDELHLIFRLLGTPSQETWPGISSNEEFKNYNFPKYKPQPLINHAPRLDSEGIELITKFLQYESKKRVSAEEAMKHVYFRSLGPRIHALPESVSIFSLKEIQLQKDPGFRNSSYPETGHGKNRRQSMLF"}, "PTK2": {"biological_target": "PTK2 (Homo sapiens, UniProt Q05397)", "sequence (Q05397 whole entry)": "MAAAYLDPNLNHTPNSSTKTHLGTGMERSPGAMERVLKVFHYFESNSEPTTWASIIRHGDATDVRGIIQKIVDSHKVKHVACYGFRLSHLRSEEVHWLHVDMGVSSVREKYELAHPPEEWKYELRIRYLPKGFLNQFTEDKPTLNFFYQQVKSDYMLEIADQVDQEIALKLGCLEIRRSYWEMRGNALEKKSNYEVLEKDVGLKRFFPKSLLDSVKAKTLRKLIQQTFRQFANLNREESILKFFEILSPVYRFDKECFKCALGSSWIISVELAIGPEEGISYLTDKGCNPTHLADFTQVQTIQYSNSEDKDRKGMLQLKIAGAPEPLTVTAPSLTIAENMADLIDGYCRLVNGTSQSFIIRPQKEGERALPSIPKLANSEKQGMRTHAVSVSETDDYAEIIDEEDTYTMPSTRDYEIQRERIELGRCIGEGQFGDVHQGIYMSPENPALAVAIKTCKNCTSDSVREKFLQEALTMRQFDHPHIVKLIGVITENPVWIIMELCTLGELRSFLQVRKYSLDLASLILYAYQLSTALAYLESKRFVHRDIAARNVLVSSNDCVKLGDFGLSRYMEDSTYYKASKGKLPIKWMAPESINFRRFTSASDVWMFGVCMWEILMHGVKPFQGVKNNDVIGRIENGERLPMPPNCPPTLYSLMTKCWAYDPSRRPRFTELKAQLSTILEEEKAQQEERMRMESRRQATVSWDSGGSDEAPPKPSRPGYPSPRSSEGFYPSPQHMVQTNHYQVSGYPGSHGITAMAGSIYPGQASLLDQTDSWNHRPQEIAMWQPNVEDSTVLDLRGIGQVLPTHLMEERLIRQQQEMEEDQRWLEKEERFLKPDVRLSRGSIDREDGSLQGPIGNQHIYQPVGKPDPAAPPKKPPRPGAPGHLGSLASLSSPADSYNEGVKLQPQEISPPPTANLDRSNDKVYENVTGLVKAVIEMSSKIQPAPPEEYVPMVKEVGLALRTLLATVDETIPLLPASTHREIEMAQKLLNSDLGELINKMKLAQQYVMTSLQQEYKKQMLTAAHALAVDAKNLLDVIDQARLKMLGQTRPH"}, "FER": {"biological_target": "FER (Homo sapiens, UniProt P16591)", "sequence (P16591 whole entry)": "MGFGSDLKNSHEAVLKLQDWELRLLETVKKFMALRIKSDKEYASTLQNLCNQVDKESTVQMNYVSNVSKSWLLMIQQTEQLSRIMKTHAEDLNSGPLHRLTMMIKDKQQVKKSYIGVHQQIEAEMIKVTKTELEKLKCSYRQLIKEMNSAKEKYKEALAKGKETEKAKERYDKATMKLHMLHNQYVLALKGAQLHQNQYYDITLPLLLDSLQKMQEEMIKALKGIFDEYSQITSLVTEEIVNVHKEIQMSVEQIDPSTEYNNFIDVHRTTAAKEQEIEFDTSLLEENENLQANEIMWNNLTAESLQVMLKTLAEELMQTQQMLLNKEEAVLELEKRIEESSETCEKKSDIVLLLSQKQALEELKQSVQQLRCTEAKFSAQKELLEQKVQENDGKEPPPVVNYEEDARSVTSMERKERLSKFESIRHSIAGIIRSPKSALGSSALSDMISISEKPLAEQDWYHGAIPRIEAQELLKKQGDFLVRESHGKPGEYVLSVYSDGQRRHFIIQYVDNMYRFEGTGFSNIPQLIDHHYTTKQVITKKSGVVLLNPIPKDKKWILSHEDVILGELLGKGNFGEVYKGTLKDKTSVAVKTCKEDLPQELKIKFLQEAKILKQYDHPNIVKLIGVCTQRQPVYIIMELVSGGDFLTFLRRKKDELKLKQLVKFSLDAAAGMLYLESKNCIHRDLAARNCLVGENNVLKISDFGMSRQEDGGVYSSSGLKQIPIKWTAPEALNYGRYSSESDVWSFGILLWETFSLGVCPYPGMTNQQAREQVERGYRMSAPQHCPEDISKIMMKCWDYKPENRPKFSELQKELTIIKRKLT"}, "PIM1": {"biological_target": "PIM1 (Homo sapiens, UniProt P11309)", "sequence (P11309 whole entry)": "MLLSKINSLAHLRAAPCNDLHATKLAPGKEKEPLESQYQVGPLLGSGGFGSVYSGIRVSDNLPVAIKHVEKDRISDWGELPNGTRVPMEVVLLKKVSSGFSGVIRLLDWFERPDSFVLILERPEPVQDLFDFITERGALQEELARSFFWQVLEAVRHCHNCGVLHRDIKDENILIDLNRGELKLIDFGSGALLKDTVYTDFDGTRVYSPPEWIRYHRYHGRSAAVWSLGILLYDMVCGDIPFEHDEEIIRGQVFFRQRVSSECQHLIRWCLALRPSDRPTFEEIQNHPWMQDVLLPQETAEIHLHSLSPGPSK"}, "LATS1": {"biological_target": "T2, LATS1 (Homo sapiens, UniProt O95835)", "T2 sequence (O95835 1-1130)": "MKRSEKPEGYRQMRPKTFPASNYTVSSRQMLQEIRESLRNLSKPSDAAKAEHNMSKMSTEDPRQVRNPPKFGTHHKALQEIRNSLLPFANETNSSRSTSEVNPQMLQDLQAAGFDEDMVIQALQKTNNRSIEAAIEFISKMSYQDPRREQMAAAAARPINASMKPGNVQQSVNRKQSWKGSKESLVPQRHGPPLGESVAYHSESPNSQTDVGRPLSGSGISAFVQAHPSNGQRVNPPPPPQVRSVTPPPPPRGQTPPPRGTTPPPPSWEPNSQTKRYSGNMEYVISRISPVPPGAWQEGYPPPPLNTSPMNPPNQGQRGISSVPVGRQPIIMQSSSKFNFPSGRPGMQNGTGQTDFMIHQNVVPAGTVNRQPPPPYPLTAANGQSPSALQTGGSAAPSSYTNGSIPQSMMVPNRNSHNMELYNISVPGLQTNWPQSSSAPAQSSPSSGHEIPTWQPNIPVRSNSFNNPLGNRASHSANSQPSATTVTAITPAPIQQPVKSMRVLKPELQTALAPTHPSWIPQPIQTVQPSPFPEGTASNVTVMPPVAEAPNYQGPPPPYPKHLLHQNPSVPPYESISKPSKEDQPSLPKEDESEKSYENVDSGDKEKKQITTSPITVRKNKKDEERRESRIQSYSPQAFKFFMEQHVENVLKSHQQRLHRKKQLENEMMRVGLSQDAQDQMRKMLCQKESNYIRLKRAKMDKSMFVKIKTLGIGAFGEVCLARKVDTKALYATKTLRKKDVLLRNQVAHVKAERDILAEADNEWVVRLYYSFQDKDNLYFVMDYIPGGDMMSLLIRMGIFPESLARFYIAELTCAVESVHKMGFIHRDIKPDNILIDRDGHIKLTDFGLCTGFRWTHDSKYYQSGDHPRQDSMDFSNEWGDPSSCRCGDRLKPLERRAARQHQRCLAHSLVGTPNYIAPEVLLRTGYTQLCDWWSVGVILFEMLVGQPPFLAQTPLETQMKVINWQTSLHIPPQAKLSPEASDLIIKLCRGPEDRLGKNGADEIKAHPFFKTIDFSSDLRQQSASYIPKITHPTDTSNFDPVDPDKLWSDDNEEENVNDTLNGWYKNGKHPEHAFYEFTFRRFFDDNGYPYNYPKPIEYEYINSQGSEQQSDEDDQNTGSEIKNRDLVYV"}, "WEE1": {"biological_target": "WEE1 (Homo sapiens, UniProt P30291)"}, "TYK2": {"biological_target": "TYK2 (Homo sapiens, UniProt P29597)"}, "CSNK2A1": {"biological_target": "CSNK2A1 (Homo sapiens, UniProt P68400)", "sequence (P68400 whole entry)": "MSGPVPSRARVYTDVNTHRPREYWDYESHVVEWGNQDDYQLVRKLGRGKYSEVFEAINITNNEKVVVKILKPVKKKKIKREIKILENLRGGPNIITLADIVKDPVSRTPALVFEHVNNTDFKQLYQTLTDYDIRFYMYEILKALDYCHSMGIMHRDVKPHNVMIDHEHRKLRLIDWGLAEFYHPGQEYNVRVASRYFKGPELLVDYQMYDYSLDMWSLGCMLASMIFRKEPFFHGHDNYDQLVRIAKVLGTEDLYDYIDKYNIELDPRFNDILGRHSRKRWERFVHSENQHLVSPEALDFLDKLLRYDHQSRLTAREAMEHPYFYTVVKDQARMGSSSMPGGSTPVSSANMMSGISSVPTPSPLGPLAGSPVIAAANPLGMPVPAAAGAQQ"}, "PRKCA": {"biological_target": "PRKCA (Homo sapiens, UniProt P17252)"}, "MAPK14": {"biological_target": "MAPK14 (Homo sapiens, UniProt Q16539)"}, "PRKCD": {"biological_target": "PRKCD (Homo sapiens, UniProt Q05655)", "sequence (Q05655 whole entry)": "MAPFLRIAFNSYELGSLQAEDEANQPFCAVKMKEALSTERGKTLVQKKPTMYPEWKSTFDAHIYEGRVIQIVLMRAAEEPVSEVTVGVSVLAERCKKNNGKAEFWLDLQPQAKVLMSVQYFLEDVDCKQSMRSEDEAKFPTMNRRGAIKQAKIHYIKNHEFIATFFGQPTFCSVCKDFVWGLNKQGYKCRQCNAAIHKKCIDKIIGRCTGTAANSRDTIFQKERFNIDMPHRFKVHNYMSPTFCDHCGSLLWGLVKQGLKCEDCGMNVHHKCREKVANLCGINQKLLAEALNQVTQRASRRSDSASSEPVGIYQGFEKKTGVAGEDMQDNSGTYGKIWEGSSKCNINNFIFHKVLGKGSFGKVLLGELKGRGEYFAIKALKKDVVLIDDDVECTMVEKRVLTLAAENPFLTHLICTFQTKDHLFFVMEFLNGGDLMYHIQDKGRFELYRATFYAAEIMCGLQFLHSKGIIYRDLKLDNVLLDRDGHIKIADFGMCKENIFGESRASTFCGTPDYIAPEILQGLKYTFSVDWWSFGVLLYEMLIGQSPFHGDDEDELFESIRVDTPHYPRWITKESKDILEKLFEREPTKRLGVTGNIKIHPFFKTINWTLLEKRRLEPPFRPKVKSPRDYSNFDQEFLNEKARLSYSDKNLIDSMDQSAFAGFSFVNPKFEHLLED"}, "CAMKK2": {"biological_target": "CAMKK2 (Homo sapiens, UniProt Q96RR4)", "sequence (Q96RR4 whole entry)": "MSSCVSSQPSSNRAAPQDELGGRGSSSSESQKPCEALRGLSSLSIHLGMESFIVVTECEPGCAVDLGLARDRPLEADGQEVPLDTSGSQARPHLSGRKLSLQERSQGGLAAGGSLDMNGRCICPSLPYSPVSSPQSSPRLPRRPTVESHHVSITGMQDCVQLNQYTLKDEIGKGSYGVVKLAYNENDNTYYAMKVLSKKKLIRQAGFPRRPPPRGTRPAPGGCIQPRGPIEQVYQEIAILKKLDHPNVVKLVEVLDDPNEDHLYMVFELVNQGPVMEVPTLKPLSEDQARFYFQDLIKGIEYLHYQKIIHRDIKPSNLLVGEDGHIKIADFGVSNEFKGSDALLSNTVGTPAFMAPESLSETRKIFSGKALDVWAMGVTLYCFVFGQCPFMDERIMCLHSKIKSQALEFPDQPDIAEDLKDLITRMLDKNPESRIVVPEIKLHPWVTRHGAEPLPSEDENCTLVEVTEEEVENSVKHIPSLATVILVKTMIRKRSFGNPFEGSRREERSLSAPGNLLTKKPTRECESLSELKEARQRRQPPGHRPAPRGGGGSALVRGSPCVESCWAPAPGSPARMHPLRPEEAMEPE"}}, "note": "“And” between values parts separate entries of the source, which are not always exact repeats. Identical values can stand only once.", "data": [{"smiles": "CN1CCN(c2ccc(Nc3ncc(C#N)c(Nc4ccccc4C(N)=O)n3)cc2)CC1.Cl", "note": "[TCMDC-134116]", "values": [{"measurement": "IC50", "setting": "MASTL", "result": "280 nM and 610 nM"}, {"measurement": "IC50", "setting": "PCTK2", "result": "76 nM and 110 nM"}, {"measurement": "IC50", "setting": "PTK2", "result": "44 nM and 58 nM"}, {"measurement": "IC50", "setting": "FER", "result": "220 nM and 210 nM"}, {"measurement": "IC50", "setting": "PIM1", "result": "7200 nM and 6000 nM"}, {"measurement": "IC50", "setting": "LATS1", "result": 210, "unit": "nM"}, {"measurement": "IC50", "setting": "WEE1", "result": "48 nM and 47 nM"}, {"measurement": "IC50", "setting": "TYK2", "result": "100 nM and 92 nM"}, {"measurement": "IC50", "setting": "CSNK2A1", "result": "≤ 32 nM and 34 nM"}, {"measurement": "IC50", "setting": "PRKCA", "result": 740, "unit": "nM"}, {"measurement": "IC50", "setting": "MAPK14", "result": "> 20000", "unit": "nM"}, {"measurement": "IC50", "setting": "PRKCD", "result": 850, "unit": "nM"}, {"measurement": "IC50", "setting": "CAMKK2", "result": "360 nM and 380 nM"}]}, {"smiles": "Cl.NCC1(c2nc(-c3ccc(Cl)c(O)c3)c(-c3ccncc3)[nH]2)CCCCC1", "note": "[TCMDC-141154]", "values": [{"measurement": "IC50", "setting": "MASTL", "result": "> 20000", "unit": "nM"}, {"measurement": "IC50", "setting": "PCTK2", "result": "> 20000", "unit": "nM"}, {"measurement": "IC50", "setting": "PTK2", "result": "> 20000", "unit": "nM"}, {"measurement": "IC50", "setting": "FER", "result": "> 20000", "unit": "nM"}, {"measurement": "IC50", "setting": "PIM1", "result": "> 20000", "unit": "nM"}, {"measurement": "IC50", "setting": "LATS1", "result": 1100, "unit": "nM"}, {"measurement": "IC50", "setting": "WEE1", "result": "> 20000", "unit": "nM"}, {"measurement": "IC50", "setting": "TYK2", "result": "> 20000", "unit": "nM"}, {"measurement": "IC50", "setting": "CSNK2A1", "result": "> 20000", "unit": "nM"}, {"measurement": "IC50", "setting": "PRKCA", "result": "> 20000", "unit": "nM"}, {"measurement": "IC50", "setting": "MAPK14", "result": "≤ 32", "unit": "nM"}, {"measurement": "IC50", "setting": "PRKCD", "result": 1000, "unit": "nM"}, {"measurement": "IC50", "setting": "CAMKK2", "result": "> 20000", "unit": "nM"}]}, {"smiles": "CN(C)CC(O)COc1ccc(Nc2ncc([N+](=O)[O-])c(Nc3ccccc3O)n2)cc1.O=C(O)C(F)(F)F", "note": "(stereo not drawn) [TCMDC-141399]", "values": [{"measurement": "IC50", "setting": "MASTL", "result": "> 20000", "unit": "nM"}, {"measurement": "IC50", "setting": "PCTK2", "result": "1500 nM and 1400 nM"}, {"measurement": "IC50", "setting": "PTK2", "result": "90 nM and 97 nM"}, {"measurement": "IC50", "setting": "FER", "result": "930 nM and 810 nM"}, {"measurement": "IC50", "setting": "PIM1", "result": "> 20000", "unit": "nM"}, {"measurement": "IC50", "setting": "LATS1", "result": "> 20000", "unit": "nM"}, {"measurement": "IC50", "setting": "WEE1", "result": 580, "unit": "nM"}, {"measurement": "IC50", "setting": "TYK2", "result": 1900, "unit": "nM"}, {"measurement": "IC50", "setting": "CSNK2A1", "result": 92, "unit": "nM"}, {"measurement": "IC50", "setting": "PRKCA", "result": "> 20000", "unit": "nM"}, {"measurement": "IC50", "setting": "MAPK14", "result": "> 20000", "unit": "nM"}, {"measurement": "IC50", "setting": "PRKCD", "result": "> 20000", "unit": "nM"}, {"measurement": "IC50", "setting": "CAMKK2", "result": "5300 nM and 5600 nM"}]}]}
